Where two headings read alike, the source gives them in different places.
Experiments:
[1] = In vitro plasma protein binding; assay type: in vitro ADME; conditions: data not shown, read-out: fu,p (unbound fraction, plasma protein)
EP cells [2] = experiment: FdCyd wash-out experiment, EP; assay type: cell-based; conditions: Mus musculus
Procedure: (§1) Myc1 and Myc2 G3 MB, EP, and CPC tumor cells (Supplementary Table 1) were plated in 96-well plates. After 24 h, 128 nL of a dilution series of a selected drug was transferred creating a final drug concentration of 0.5–9.3 µM. To assess the optimal exposure time, the drug was removed and replaced with fresh medium after 1, 3, 6, 10, 24, or 72 h (“wash-out”).
(§2) In both experiments, 72 h after drug addition to cells, we added 100 µL of CellTiter-Glo reagent (Promega), and we read the luminescence signal. Data analysis used GraphPad Prism software (Version 5.04).

BJ cells = experiment: FdCyd growth inhibition, BJ control cells; assay type: cell-based, human; conditions: Fig. 2c
EP tumors [3] = experiment: In vivo proliferation, Ki67 immunohistochemistry, EP
HEPG2 cells = experiment: FdCyd growth inhibition, HEPG2 control cells; assay type: cell-based, human; conditions: Fig. 2c
G3 MB (Myc1) cells = experiment: FdCyd wash-out experiment, G3 MB; assay type: cell-based; conditions: Mus musculus
Procedure: as §1, §2

G3 MB tumors = experiment: In vivo apoptosis, Caspase 3 immunohistochemistry, G3 MB
CPC tumors = experiment: In vivo apoptosis, Caspase 3 immunohistochemistry, CPC
CPC cells = experiment: FdCyd wash-out experiment, CPC; assay type: cell-based; conditions: Mus musculus
Procedure: as §1, §2

mouse EP neurospheres = experiment: 72 h dose response, CellTiter-Glo, mouse EP neurospheres; assay type: cell-based; conditions: Mus musculus, Fig. 2a, read-out: EC50
Procedure: In the Discovery Phase, the initial studies included the screen of a library of 9 compounds against epigenetic regulators at a single concentration and a dose-response on G3 MB, EP, and CPC tumor cells, as well as HEPG2 and BJ (Fig. 1). The library and dose response studies are described in the Supplementary Material.
Briefly, cells (see Supplementary Table S2 for cell identity) were plated in 384-well plates (Corning) in 30 µL of supplemented neurobasal medium by using an automated plate filler (Wellmate, Matrix). After 24 hr, 28 nL of compound was transferred via pin tool, resulting in a final drug concentration of approximately 4 nM to 10 µM. After 72 hr of treatment, CellTiter-Glo reagent (Promega) was added, and the luminescence signal was measured using an automated Envision plate reader (Perkin-Elmer). Luminescence data were normalized by log10-transformation prior to calculating the percentage of inhibition using the following equation: 100 × (negative control mean − compound value)/(negative control mean − positive control mean). Our negative control represents cells treated with 0.1% DMSO with 0% inhibition. Cells treated with 35 µM cycloheximide (G3 MB tumor spheres) or 10 µM panobinostat (EP and CPC cells) were used as positive controls with 100% inhibition. The response of cells to the compounds were normalized to that of the positive controls present in each plate screened, shown in the Y axis of the dose-response curve. […] Unless otherwise reported, the y-axis for each dose response curve in the figures was independently normalized to the range from 0 to 1 and therefore reported as ‘relative growth inhibition’. High through put assay data were analyzed by using our in-house Robust Interpretation of Screening Experiments (RISE) application that was written in Pipeline Pilot (Accelrys, v. 8.5) and R (R Development Core Team).

EP cells [4] = experiment: Effect of deoxycytidine on FdCyd efficacy, 72 h, CellTiter-Glo; assay type: cell-based; conditions: Mus musculus; FdCyd alone, 72 h exposure
Procedure: To test the effect of deoxycytidine on FdCyd efficacy, EP cells were plated in 96 well plates. After 24 h, FdCyd was added at final concentrations ranging from 0.1 nM to 50 μM alone or together with fixed concentration of deoxycytidine (Sigma) of 0.0122, 0.195, 6.25 or 100 μM.
as §2

[5] = In vitro brain homogenate binding; assay type: in vitro ADME; conditions: data not shown, read-out: fu,b (unbound fraction, brain homogenate)
[6] = test system: Trp53−/−, Cdkn2c−/− neurospheres; experiment: In vitro cell cycle and apoptosis, control neurospheres; assay type: cell-based, mouse; conditions: 4 nM FdCyd
Source text: See Supplementary Material for more details.
Tumors were fixed in 10% formalin.

EP tumors [7] = experiment: In vivo apoptosis, Caspase 3 immunohistochemistry, EP
[8] = test system: Ink4a/Arf−/− neural stem cells; experiment: FdCyd growth inhibition, neural stem cells; assay type: cell-based, mouse; conditions: Fig. 2c
[9] = 1 h exposure then wash-out, read at 72 h, read-out: EC50 after 1 h FdCyd exposure
[10] = 72 h, wash-out, 1st of 4 values listed for the remaining time points (3, 6, 10, 24, 72 h), read-out: EC50, longer exposure
[11] = 72 h, wash-out, 2nd of 4 values listed for the remaining time points (3, 6, 10, 24, 72 h), read-out: EC50, longer exposure
[12] = 72 h, wash-out, 3rd of 4 values listed for the remaining time points (3, 6, 10, 24, 72 h), read-out: EC50, longer exposure
[13] = 72 h, wash-out, 4th of 4 values listed for the remaining time points (3, 6, 10, 24, 72 h), read-out: EC50, longer exposure

- fraction unbound [1]: ~1
- EC50 (EP cells [2]; [9]): 22 ± 8 nM
- EC50 (EP cells [2]; [10]): 17 nM
- EC50 (EP cells [2]; [11]): 13 nM
- EC50 (EP cells [2]; [12]): 3 nM
- EC50 (EP cells [2]; [13]): 0.7 nM
- EC50 (G3 MB (Myc1) cells; [9]): 8 ± 2 nM
- EC50 (G3 MB (Myc1) cells; [10]): 5 nM
- EC50 (G3 MB (Myc1) cells; [11]): 4 nM
- EC50 (G3 MB (Myc1) cells; [12]): 2.3 nM
- EC50 (G3 MB (Myc1) cells; [13]): 1 nM
- EC50 (CPC cells; [9]): 63 ± 28 nM
- EC50 (CPC cells; [10]): 58 nM
- EC50 (CPC cells; [11]): 44 nM
- EC50 (CPC cells; [12]): 31 nM
- EC50 (CPC cells; [13]): 1 nM
- fraction unbound [5]: ~1
SMILES: Nc1nc(=O)n([C@H]2C[C@H](O)[C@@H](CO)O2)cc1F [FdCyd, 5-fluoro-2′-deoxycytidine]
- sensitivity to FdCyd (growth inhibition) (BJ cells): not
- Ki67 % of positive cells (EP tumors [3]; 3 hr after IP injection of FdCyd + THU, vehicle 81.79): 77.06%
- Ki67 % of positive cells (EP tumors [3]; 8 hr after IP injection of FdCyd + THU, vehicle 80.10): 72.88%
- Ki67 % of positive cells (EP tumors [3]; 24 hr after IP injection of FdCyd + THU, vehicle 68.41): 72.62%
- sensitivity to FdCyd (growth inhibition) (HEPG2 cells): not
- Caspase-3 % of positive cells (G3 MB tumors; 3 hr after IP injection of FdCyd + THU, vehicle 12.37): 19.88%
- Caspase-3 % of positive cells (G3 MB tumors; 8 hr after IP injection of FdCyd + THU, vehicle 8.945): 11.04%
- Caspase-3 % of positive cells (G3 MB tumors; 24 hr after IP injection of FdCyd + THU, vehicle 9.419): 10.38%
- Caspase-3 % of positive cells (CPC tumors; 3 hr after IP injection of FdCyd + THU, vehicle 3.963): 10.63%
- Caspase-3 % of positive cells (CPC tumors; 8 hr after IP injection of FdCyd + THU, vehicle 4.917): 2.297%
- Caspase-3 % of positive cells (CPC tumors; 24 hr after IP injection of FdCyd + THU, vehicle 3.493): 6.797%
- EC50 (mouse EP neurospheres): 4 nM
- EC50 (EP cells [4]): 50 nM
- effect on cell cycle and apoptosis of control neurospheres [6]: without affecting control neurospheres
- Caspase-3 % of positive cells (EP tumors [7]; 3 hr after IP injection of FdCyd + THU, vehicle 0.9975): 1.416%
- Caspase-3 % of positive cells (EP tumors [7]; 8 hr after IP injection of FdCyd + THU, vehicle 1.110): 1.210%
- Caspase-3 % of positive cells (EP tumors [7]; 24 hr after IP injection of FdCyd + THU, vehicle 1.427): 1.030%
- sensitivity to FdCyd (growth inhibition) [8]: showed sensitivity
